Where a name gives a salt, the structure may show the parent alone.
What was measured:
[1] = target: T1, c-Myc/Max/Ebox DNA (Homo sapiens, UniProt P01106); experiment: c-Myc/Max/Ebox DNA AlphaScreen Assay; type: binding; conditions: free c-Myc 20 nM, his6-Max 5 nM, biotinylated Ebox oligo 10 nM, 2 hour incubation
T1 construct: his6 (cleaved yes)
Outline: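 Tag-free c-Myc (20 nM final) and biotinylated Ebox DNA (10 nM final) met compound first, then his6-Max was added; 2 h incubation in pH 8.0 HEPES buffer (150 mM NaCl, BSA, Tween20, glycogen, DTT), DMSO ≤2%. Ternary complex read as AlphaScreen signal between Ni-chelate acceptor and streptavidin donor beads.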

[2] = tested on: human small lung cancer cell line H2171; experiment: Cell Viability Assay (ATPlite); type: cell-based; conditions: NCI-H2171, 72 h, H2171 cells, incubated for three days, ATPlite readout
Description: Compounds of the invention were assayed for cell viability using the human small lung cancer cell line H2171 as described in the following protocol. Cells were counted and adjusted to 20,000 cells/mL. Using a Biotek EL406, 50 μL of cells in media were distributed into 384 well white plates from Thermo. Immediately after plating, compound in DMSO was distributed to plates. Compounds were added to plates using a 50 nL 384 well pin transfer manifold on a Janus workstation. Stocks were arrayed in 10 point dose response in DMSO stock in 384 well Greiner compound plates. After the addition of compounds, plates were incubated for three days in a 37° C. incubator. Cell viability was read out using ATPlite from Perkin Elmer. Lyophilized powder was resuspended in lysis buffer and diluted 1:2 with deionized water. 25 μL of this solution was added to each well using the Biotek liquid handler. Plates were incubated for 15 minutes at room temperature before signal was read on an Envision Plate Reader. The data from this assay are summarized in Table 3 below (H2171 activity).

T1 sequence (P01106 whole entry): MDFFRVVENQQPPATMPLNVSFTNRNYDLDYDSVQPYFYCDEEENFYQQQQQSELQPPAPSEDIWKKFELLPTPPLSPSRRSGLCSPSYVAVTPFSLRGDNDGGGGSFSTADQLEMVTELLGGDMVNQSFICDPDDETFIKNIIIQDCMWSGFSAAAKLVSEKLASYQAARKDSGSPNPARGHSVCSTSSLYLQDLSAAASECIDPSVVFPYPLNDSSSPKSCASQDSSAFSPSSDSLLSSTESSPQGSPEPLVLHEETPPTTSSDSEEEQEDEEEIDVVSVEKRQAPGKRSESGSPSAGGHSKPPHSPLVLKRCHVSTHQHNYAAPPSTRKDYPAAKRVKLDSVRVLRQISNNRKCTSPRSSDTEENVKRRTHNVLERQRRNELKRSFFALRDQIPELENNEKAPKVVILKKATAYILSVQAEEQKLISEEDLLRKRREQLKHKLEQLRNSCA

IC50 [1] [nM]	IC50 [2] [nM]	SMILES
< 500	500 to 5000	Cn1cncc1CNCCC(=O)Nc1sc2c(c1-c1nc3cnccc3s1)CCNC2 [Compound 203]
500 to 5000	< 500	C[C@@H]1NCCc2c1sc(NC(=O)CCN[C@@H]1C[C@H]3CNC[C@H]3C1)c2-c1nc2cnccc2s1 [Compound 246, N—((S)-7-methyl-3-(thiazolo[4,5-c]pyridin-2-yl)-4,5,6,7-tetrahydrothieno[2,3-c]pyridin-2-yl)-3-(((3aR,5s,6aS)-octahydrocyclopenta[c]pyrrol-5-yl)amino)propanamide]
5000 to 25000	< 500	C[C@H]1Cc2c(sc(NC(=O)CCN[C@@H]3C[C@H]4CNC[C@H]4C3)c2-c2nc3cnccc3s2)CN1 [Compound 247, N—((S)-5-methyl-3-(thiazolo[4,5-c]pyridin-2-yl)-4,5,6,7-tetrahydrothieno[2,3-c]pyridin-2-yl)-3-(((3aR,5s,6aS)-octahydrocyclopenta[c]pyrrol-5-yl)amino)propanamide]
< 500	< 500	CC(=O)Nc1sc2c(c1-c1nc3c(C(F)F)nccc3s1)CCNC2 [Compound 106, N-[3-[4-(difluoromethyl)thiazolo[4,5-c]pyridin-2-yl]-4,5,6,7-tetrahydrothieno[2,3-c]pyridin-2-yl]acetamide]
500 to 5000	< 500	CC(=O)Nc1sc2c(c1-c1nc3cccnc3s1)CCNC2 [Compound 101, N-(3-(thiazolo[5,4-b]pyridin-2-yl)-4,5,6,7-tetrahydrothieno[2,3-c]pyridin-2-yl)acetamide]
< 500	< 500	O=C(CCN1CC(C(=O)O)C1)Nc1sc2c(c1-c1nc3cnccc3s1)CCNC2 [Compound 172]
< 500	< 500	CC[C@@H](C)NCCC(=O)Nc1sc2c(c1-c1nc3cnccc3s1)CCNC2 [Compound 217, (R)-3-(sec-butylamino)-N-(3-(thiazolo[4,5-c]pyridin-2-yl)-4,5,6,7-tetrahydrothieno[2,3-c]pyridin-2-yl)propanamide]
< 500	< 500	COCCNCCC(=O)Nc1sc2c(c1-c1nc3cnc(C)cc3s1)CCNC2 [Compound 244]
< 500	500 to 5000	COCC(NCCC(=O)Nc1sc2c(c1-c1nc3cnccc3s1)CCNC2)C(C)C (stereo not shown) [Compound 134]
< 500	< 500	CC(=O)Nc1sc2c(c1-c1nc3c(C)nc(C)cc3s1)CCNC2 [Compound 228, N-(3-(4,6-dimethylthiazolo[4,5-c]pyridin-2-yl)-4,5,6,7-tetrahydrothieno[2,3-c]pyridin-2-yl)acetamide hydrochloride]
< 500	< 500	CCN1[C@H](C)Cc2c(sc(NC(C)=O)c2-c2nc3cnccc3s2)[C@H]1C [Compound 119, N-((5R,7R)-6-ethyl-5,7-dimethyl-3-(thiazolo[4,5-c]pyridin-2-yl)-4,5,6,7-tetrahydrothieno[2,3-c]pyridin-2-yl)acetamide]
< 500	< 500	Cc1cc2sc(-c3c(NC(=O)CCNC(C)C)sc4c3CCNC4)nc2c(C)n1 [Compound 225, N-(3-(4,6-Dimethylthiazolo[4,5-c]pyridin-2-yl)-4,5,6,7-tetrahydrothieno[2,3-c]pyridin-2-yl)-3-(isopropylamino)propanamide dihydrochloride]
< 500	< 500	CCN1CCc2c(sc(NC(C)=O)c2-c2nc3cnccc3s2)[C@@H]1C [Compound 232, (S)—N-(6-ethyl-7-methyl-3-(thiazolo[4,5-c]pyridin-2-yl)-4,5,6,7-tetrahydrothieno[2,3-c]pyridin-2-yl)acetamide]
500 to 5000	< 500	CCN1Cc2sc(NC(C)=O)c(-c3nc4cnccc4s3)c2C[C@H]1C [Compound 230, (R)—N-(6-ethyl-5-methyl-3-(thiazolo[4,5-c]pyridin-2-yl)-4,5,6,7-tetrahydrothieno[2,3-c]pyridin-2-yl)acetamide]
< 500	< 500	CCC(C)NCCC(=O)Nc1sc2c(c1-c1nc3cnccc3s1)CCNC2 (stereo not shown) [Compound 103, 3-(sec-butylamino)-N-(3-(thiazolo[4,5-c]pyridin-2-yl)-4,5,6,7-tetrahydrothieno[2,3-c]pyridin-2-yl)propanamide]
< 500	< 500	O=C(CCN[C@H]1CC[C@]2(CCC(=O)N2)CC1)Nc1sc2c(c1-c1nc3cnccc3s1)CCNC2 [Compound 177]
500 to 5000	500 to 5000	CC(=O)Nc1sc2c(c1-c1nc3c[n+]([O-])ccc3s1)CCNC2 [Compound 108, 2-(2-acetamido-4,5,6,7-tetrahydrothieno[2,3-c]pyridin-3-yl)thiazolo[4,5-c]pyridine 5-oxide]

SMILES	IC50 [1] [nM]	IC50 [2] [nM]
CC(=O)Nc1sc2c(c1-c1nc3cnccc3s1)C[C@@H](C)N[C@@H]2C (single isomer, unassigned) [Compound 110]	< 500	< 500
CCN1C(C)Cc2c(sc(NC(C)=O)c2-c2nc3cnccc3s2)C1C (stereo not shown) [Compound 117, N-(6-ethyl-5,7-dimethyl-3-(thiazolo[4,5-c]pyridin-2-yl)-4,5,6,7-tetrahydrothieno[2,3-c]pyridin-2-yl)acetamide]	500 to 5000	500 to 5000
CC(=O)Nc1sc2c(c1-c1nc3cnccc3s1)CCC(N)C2 (stereo not shown) [Compound 113, N-(6-amino-3-(thiazolo[4,5-c]pyridin-2-yl)-4,5,6,7-tetrahydrobenzo[b]thiophen-2-yl)acetamide]	500 to 5000	< 500
